Data published in ChEMBL document CHEMBL3885881, “DrugMatrix”.

Species: Rattus norvegicus
Assay: DrugMatrix - Regimen: Daily Repeat
Format: toxicity, organism-based, Sprague-Dawley
Set-up: regimen Daily Repeat, gender Male, age 6-8 weeks
Conditions: in vivo, po, route oral GAVAGE, vehicle .5 % CMC; for URIC ACID / ALANINE AMINOTRANSFERASE / ALBUMIN / ALKALINE PHOSPHATASE / ASPARTATE AMINOTRANSFERASE / BLOOD UREA NITROGEN / CARBON DIOXIDE / CHLORIDE / CHOLESTEROL / CREATINE PHOSPHOKINASE / CREATININE / GLUCOSE / LACTATE DEHYDROGENASE / LIPASE / PHOSPHORUS / POTASSIUM / SODIUM / TOTAL BILIRUBIN / TOTAL PROTEIN: tissue Plasma; for ABSOLUTE BASOPHIL / ABSOLUTE EOSINOPHIL / ABSOLUTE LYMPHOCYTE / ABSOLUTE MONOCYTE / ABSOLUTE SEGMENTED NEUTROPHIL / BASOPHIL / EOSINOPHIL / ERYTHROCYTE COUNT / HEMATOCRIT / HEMOGLOBIN / LEUKOCYTE COUNT / LYMPHOCYTE / MEAN CORPUSCULAR HEMOGLOBIN / MEAN CORPUSCULAR HEMOGLOBIN CONCENTRATION / MEAN CORPUSCULAR VOLUME / MONOCYTE / NEUTROPHIL / NUCLEATED RED BLOOD CELLS / PLATELET COUNT: tissue Blood
[1] = 250 mg/kg, 120 h, dose level High, time 5 day
[2] = […], 72 h, dose 0.25 mg/Kg, dose level Low, time 3 day
[3] = […], 120 h, dose 0.25 mg/Kg, dose level Low, time 5 day

C#C[C@]1(O)CC[C@H]2[C@@H]3CCc4cc(OC)ccc4[C@H]3CC[C@@]21C [MESTRANOL]
URIC ACID (250 mg/kg, 72 h, dose level High, time 3 day): 1.23 mg/dL | ABSOLUTE BASOPHIL [1]: 0 CELLS/uL | ABSOLUTE EOSINOPHIL [1]: 0 CELLS/uL | ABSOLUTE LYMPHOCYTE [1]: 11929 CELLS/uL | ABSOLUTE MONOCYTE [1]: 0 CELLS/uL | ABSOLUTE SEGMENTED NEUTROPHIL [1]: 1137.67 CELLS/uL | BASOPHIL [1]: 0% | EOSINOPHIL [1]: 0% | ERYTHROCYTE COUNT [1]: 6.07 x10E6/uL | HEMATOCRIT [1]: 37.27% | HEMOGLOBIN [1]: 14.37 G/DL | LEUKOCYTE COUNT [1]: 13.07 x10E3/uL | LYMPHOCYTE [1]: 91.33% | MEAN CORPUSCULAR HEMOGLOBIN [1]: 23.67 pg | MEAN CORPUSCULAR HEMOGLOBIN CONCENTRATION [1]: 38.53 G/DL | MEAN CORPUSCULAR VOLUME [1]: 61.37 fL | MONOCYTE [1]: 0% | NEUTROPHIL [1]: 8.67% | NUCLEATED RED BLOOD CELLS [1]: 0 /100WBC | PLATELET COUNT [1]: 1600 x10E3/uL | ALANINE AMINOTRANSFERASE [1]: 72.67 u/L | ALBUMIN [1]: 4.13 G/DL | ALKALINE PHOSPHATASE [1]: 667.33 u/L | ASPARTATE AMINOTRANSFERASE [1]: 77.67 u/L | BLOOD UREA NITROGEN [1]: 14.67 mg/dL | CARBON DIOXIDE [1]: 23.67 mmol/L | CHLORIDE [1]: 102 MEQ/L | CHOLESTEROL [1]: 4.67 mg/dL | CREATINE PHOSPHOKINASE [1]: 223.67 u/L | CREATININE [1]: 0.14 mg/dL | GLUCOSE [1]: 117 mg/dL | LACTATE DEHYDROGENASE [1]: 394.67 u/L | LIPASE [1]: 7.33 u/L | PHOSPHORUS [1]: 10.63 mg/dL | POTASSIUM [1]: 6.65 MEQ/L | SODIUM [1]: 145.1 MEQ/L | TOTAL BILIRUBIN [1]: 0.13 mg/dL | URIC ACID [1]: 1.63 mg/dL | ABSOLUTE BASOPHIL [2]: 0 CELLS/uL | ABSOLUTE EOSINOPHIL [2]: 68.33 CELLS/uL | ABSOLUTE LYMPHOCYTE [2]: 15182.67 CELLS/uL | ABSOLUTE MONOCYTE [2]: 0 CELLS/uL | ABSOLUTE SEGMENTED NEUTROPHIL [2]: 1349 CELLS/uL | BASOPHIL [2]: 0% | EOSINOPHIL [2]: 0.33% | ERYTHROCYTE COUNT [2]: 5.73 x10E6/uL | HEMATOCRIT [2]: 36.73% | HEMOGLOBIN [2]: 14.03 G/DL | LEUKOCYTE COUNT [2]: 16.6 x10E3/uL | LYMPHOCYTE [2]: 91.67% | MEAN CORPUSCULAR HEMOGLOBIN [2]: 24.5 pg | MEAN CORPUSCULAR HEMOGLOBIN CONCENTRATION [2]: 38.17 G/DL | MEAN CORPUSCULAR VOLUME [2]: 64.17 fL | MONOCYTE [2]: 0% | NEUTROPHIL [2]: 8% | NUCLEATED RED BLOOD CELLS [2]: 0 /100WBC | PLATELET COUNT [2]: 1226 x10E3/uL | ALANINE AMINOTRANSFERASE [2]: 51.33 u/L | ALBUMIN [2]: 4.37 G/DL | ALKALINE PHOSPHATASE [2]: 522.67 u/L | ASPARTATE AMINOTRANSFERASE [2]: 83.67 u/L | BLOOD UREA NITROGEN [2]: 12.67 mg/dL | CARBON DIOXIDE [2]: 28 mmol/L | CHLORIDE [2]: 101.67 MEQ/L | CHOLESTEROL [2]: 36 mg/dL | CREATINE PHOSPHOKINASE [2]: 348.33 u/L | CREATININE [2]: 0.27 mg/dL | GLUCOSE [2]: 135.67 mg/dL | LACTATE DEHYDROGENASE [2]: 453.33 u/L | LIPASE [2]: 7.67 u/L | PHOSPHORUS [2]: 11.2 mg/dL | POTASSIUM [2]: 6.61 MEQ/L | SODIUM [2]: 145.07 MEQ/L | TOTAL BILIRUBIN [2]: 0.23 mg/dL | TOTAL PROTEIN [2]: 6.23 G/DL | URIC ACID [2]: 1.33 mg/dL | ABSOLUTE BASOPHIL [3]: 0 CELLS/uL | ABSOLUTE EOSINOPHIL [3]: 139.33 CELLS/uL | ABSOLUTE LYMPHOCYTE [3]: 14510.33 CELLS/uL | ABSOLUTE MONOCYTE [3]: 98 CELLS/uL | ABSOLUTE SEGMENTED NEUTROPHIL [3]: 652.33 CELLS/uL | BASOPHIL [3]: 0% | EOSINOPHIL [3]: 1% | ERYTHROCYTE COUNT [3]: 5.62 x10E6/uL | HEMATOCRIT [3]: 35.57% | HEMOGLOBIN [3]: 14.03 G/DL | LEUKOCYTE COUNT [3]: 15.4 x10E3/uL | LYMPHOCYTE [3]: 94.33% | MEAN CORPUSCULAR HEMOGLOBIN [3]: 25.13 pg | MEAN CORPUSCULAR HEMOGLOBIN CONCENTRATION [3]: 39.5 G/DL | MEAN CORPUSCULAR VOLUME [3]: 63.6 fL | MONOCYTE [3]: 0.67% | NEUTROPHIL [3]: 4% | NUCLEATED RED BLOOD CELLS [3]: 0 /100WBC | PLATELET COUNT [3]: 1110.33 x10E3/uL | ALANINE AMINOTRANSFERASE [3]: 49.33 u/L | ALBUMIN [3]: 3.97 G/DL | ALKALINE PHOSPHATASE [3]: 553.33 u/L | ASPARTATE AMINOTRANSFERASE [3]: 70.67 u/L | BLOOD UREA NITROGEN [3]: 19.33 mg/dL | CARBON DIOXIDE [3]: 26.67 mmol/L | CHLORIDE [3]: 102.67 MEQ/L | CHOLESTEROL [3]: 31.33 mg/dL | CREATINE PHOSPHOKINASE [3]: 297.67 u/L | CREATININE [3]: 0.26 mg/dL | GLUCOSE [3]: 141.33 mg/dL | LACTATE DEHYDROGENASE [3]: 123.67 u/L | LIPASE [3]: 7.33 u/L | PHOSPHORUS [3]: 11.23 mg/dL | POTASSIUM [3]: 6.54 MEQ/L | SODIUM [3]: 144.33 MEQ/L | TOTAL BILIRUBIN [3]: 0.27 mg/dL | TOTAL PROTEIN [3]: 6 G/DL | URIC ACID [3]: 1.13 mg/dL
